Source: ChEMBL document CHEMBL4043258, “Polycyclic polyprenylated acylphloroglucinol derivatives from Hypericum scabrum” (2017)

System: HepG2
Assay: Hepatoprotective activity in human HepG2 cells assessed as inhibition of paracetamol-induced reduction in cell viability at 10 uM pretreated for 1 hr followed by paracetamol addition after 24 hrs by MTT assay relative to control
Assay type: functional

Row | SMILES | inhibition at 10 µM [%]
1 | CC[C@H](C)C(=O)[C@]12C(=O)[C@](C)(C[C@H](CC=C(C)C)[C@@]1(C)CCC=C(C)C)C(=O)C1=C2O[C@H](C(C)(C)O)C1 | 15
2 | CC(=O)CC1C2CC3(CC=C(C)C)C(=O)C1(C(=O)c1ccccc1)C(=O)C(CC=C(C)C)(C3=O)C2(C)C (stereo not given) | 13.9
3 | CC(C)=CC[C@H]1C[C@]2(CC=C(C)C)C(=O)C3=C(O[C@H](C(C)(C)O)C3)[C@@](C(=O)c3ccccc3)(C2=O)C1(C)C | 19.5
4 | CC(C)=CC[C@H]1C[C@@]23C[C@H](C(C)(C)O)OC2=C(C(=O)c2ccccc2)C(=O)[C@](C(=O)c2ccccc2)(C3=O)C1(C)C | 13.4
5 | COC(=O)[C@]1(CC=C(C)C)C[C@@H](CC=C(C)C)C(C)(C)[C@@H](C(=O)c2ccccc2)C1=O | 32.3
6 | CC(C)=CC[C@@H]1C[C@@]2(CC=C(C)C)C(=O)[C@](C(=O)c3ccccc3)(C(=O)C3=C2O[C@H](C(C)(C)O)C3)C1(C)C | 24.5
7 | CC(C)=CCC1=C2O[C@@H](C(C)(C)O)C[C@@]23C[C@@H](CC=C(C)C)C(C)(C)[C@@](C(=O)c2ccccc2)(C1=O)C3=O | -9.68
8 | CC(C)=CC[C@H]1C[C@@]2(CC=C(C)C)C(=O)C3=C(O[C@H](C(C)(C)O)C3)[C@](C(=O)c3ccccc3)(C2=O)C1(C)C | 40.4
9 | CC(C)=CC[C@H]1C[C@@H](CC=C(C)C)C(C)(C)C(C(=O)c2ccccc2)C1=O (single isomer, unassigned) | 45
10 | COC(=O)c1cc(OC)c2c(c1-c1c(CO)cc(OC)c3c1OCO3)OCO2 [BICYCLOL] | 28.3
